Results from ChEMBL document CHEMBL5209584, “Membrane potential based assay for SLC15A2 using HEK-293 SLC15A2 OE cells” (2022).
Several values for one entry are separate records, joined by “and”; a condition that tells them apart may be missing. Identical values can stand only once. Square brackets hold non-standard residues; d marks the D form. Peptide text beside a SMILES is read from it. Sar = CNCC(=O)O

Target: T1, Solute carrier family 15 member 2 (Homo sapiens, UniProt Q16348)
T1 sequence (Q16348 whole entry): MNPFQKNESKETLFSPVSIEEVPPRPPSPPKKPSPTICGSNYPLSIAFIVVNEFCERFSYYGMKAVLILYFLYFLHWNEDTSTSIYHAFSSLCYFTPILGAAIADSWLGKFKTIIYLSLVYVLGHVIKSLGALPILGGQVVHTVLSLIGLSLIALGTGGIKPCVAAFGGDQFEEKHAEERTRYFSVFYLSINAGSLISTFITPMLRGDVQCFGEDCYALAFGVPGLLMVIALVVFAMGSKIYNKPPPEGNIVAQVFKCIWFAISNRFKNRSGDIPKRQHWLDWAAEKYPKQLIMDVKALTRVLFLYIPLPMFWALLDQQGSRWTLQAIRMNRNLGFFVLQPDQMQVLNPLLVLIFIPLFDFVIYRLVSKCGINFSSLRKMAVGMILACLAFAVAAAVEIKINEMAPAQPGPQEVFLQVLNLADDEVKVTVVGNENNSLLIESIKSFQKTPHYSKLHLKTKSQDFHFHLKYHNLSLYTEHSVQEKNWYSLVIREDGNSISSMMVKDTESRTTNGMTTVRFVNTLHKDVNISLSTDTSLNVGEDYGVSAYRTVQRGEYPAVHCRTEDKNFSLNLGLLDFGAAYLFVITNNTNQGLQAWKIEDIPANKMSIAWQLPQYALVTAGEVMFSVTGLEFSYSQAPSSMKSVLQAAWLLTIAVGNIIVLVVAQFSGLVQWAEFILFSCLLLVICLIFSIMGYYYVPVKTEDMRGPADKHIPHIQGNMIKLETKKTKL
Test: Substrate uptake by the Peptide Transporter 2 (PEPT2, SLC15A2) as assessed by the fluorescent FLIPR membrane potential dye in HEK-293 JumpIN-SLC15A2 cells (PubChem AID: 1794819)
Type: functional, cell-based, HEK293

EC50	Compound
28 µM	NCCC(=O)N[C@@H](Cc1cnc[nH]1)C(=O)O [CARNOSINE]
123 µM and 39 µM	CN(CC(=O)O)C(=O)CN [GLYCYLSARCOSINE] (H-Gly-[Sar]-OH)
